The values below are quoted from earlier work in patent US20150269865A1, “SYSTEMS AND METHODS FOR PERSONALIZED NUTRIMERS” (priority 2014, published 2015).

By bioavailability is commonly meant the share of a dose that reaches the circulation, judged against a reference dose that is usually intravenous.

The conditions of data set [1]: orally administered, human absorption kinetic studies, PMID 3257913.
A further data set deals with MTHFR (Homo sapiens, UniProt P42898). Particulars: cofactor of MTHFR or needs to be metabolized into Methyl folate.
MTHFR, sequence (P42898 whole entry): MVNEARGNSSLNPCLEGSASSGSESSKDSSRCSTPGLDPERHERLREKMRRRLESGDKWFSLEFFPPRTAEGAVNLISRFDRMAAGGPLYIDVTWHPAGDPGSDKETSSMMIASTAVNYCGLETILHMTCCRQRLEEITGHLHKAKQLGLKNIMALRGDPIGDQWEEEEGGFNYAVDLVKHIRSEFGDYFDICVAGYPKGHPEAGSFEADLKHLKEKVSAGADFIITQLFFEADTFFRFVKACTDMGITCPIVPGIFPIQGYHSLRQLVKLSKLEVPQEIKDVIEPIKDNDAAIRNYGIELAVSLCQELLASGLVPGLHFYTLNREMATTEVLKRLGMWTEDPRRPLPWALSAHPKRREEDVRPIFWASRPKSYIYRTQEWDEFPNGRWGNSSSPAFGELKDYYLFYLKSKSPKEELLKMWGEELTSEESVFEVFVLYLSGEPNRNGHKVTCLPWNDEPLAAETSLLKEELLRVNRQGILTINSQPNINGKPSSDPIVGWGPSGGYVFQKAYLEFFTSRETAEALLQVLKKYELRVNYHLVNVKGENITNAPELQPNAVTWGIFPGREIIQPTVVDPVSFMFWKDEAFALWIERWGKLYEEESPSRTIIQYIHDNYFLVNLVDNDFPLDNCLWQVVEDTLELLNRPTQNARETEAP
For data set [2] the following is noted: PMID 9630738.
The conditions of data set [3]: in vivo.
The conditions of data set [4]: PMID 9630738; compared with folic acid.
For data set [5] the following is noted: PMID 21735411; compared with Ergocalciferol (vitamin D2).
For data set [6] the following is noted: PMID23482308.
For data set [7] the following is noted: PMID23482308. The source holds these as a separate data set.
For data set [8] the following is noted: human subject treated even for a few months; PMID 23751310.
In a further data set the test system is copper absorption. Particulars: PMID 1726403.
The conditions of data set [9]: in vivo. This is another data set of the same source.
The conditions of data set [10]: human, in vivo.

For the compound `Nc1nc(=O)c2c([nH]1)NCC(CNc1ccc(C(=O)N[C@@H](CCC(=O)O)C(=O)O)cc1)N2C=O` (mixture of isomers) [Folinic acid], the bioavailability in [1] is given as 92%. Besides, at MTHFR, the Cofactor result was “Not a cofactor”. Also, the “Stability: half-life in the body compared with folic acid” value in [2] was “longer half-life in”. Further, in data set [3], the “transport through the blood brain barrier into the central nervous system” value is “readily transported”. In addition, the Therapeutic effects entry in data set [4] is on record as “more metabolically”.
Consider `C=C1CC[C@H](O)C/C1=C/C=C1\CCC[C@]2(C)[C@@H]([C@H](C)CCCC(C)C)CC[C@@H]12` [Cholecalciferol], for which the effect on mortality entry in data set [5] is on record as “decrease mortality”.
As to `Nc1nc2ncc(CNc3ccc(C(=O)N[C@@H](CCC(=O)O)C(=O)O)cc3)nc2c(=O)[nH]1` [Folic acid (FA), Folic acid], the Cofactor entry at MTHFR is reported as “Not a cofactor”. Moreover, the “Side effects: masking of vitamin B12 deficiency” value in [6] was ““does not mask”. Besides, the “Stability upon exposure to heat compared with natural forms of folate in the diet” value in data set [7] is listed as “FA is more stable”.
As to `CN(C)C(=N)N=C(N)N` [metformin], the “effect on vitamin B12 and folate levels” value in [8] was “decrease of vitamin B12 and folate”.
For `[Zn]` [zinc], the “effect on copper absorption” value in the data set with copper absorption is on record as “inhibits copper absorption”.
On to Vitamin E, for which the “effect on absorption of desipramine (Norpramin)” value in [9] is given as “interferes with the absorption”.
Regarding cobalamin [B12], in [10], the “B12 intake above which absorbance declines with increased supplementation” value is on record as “about 10 mcg”.
